PMC9138505, “Small Molecule 20S Proteasome Enhancer Regulates MYC Protein Stability and Exhibits Antitumor Activity in Multiple Myeloma” (Biomedicines, 2022)
Several values for one entry are separate records, joined by “and”; a condition that tells them apart may be missing. Equal values may be shown once.

Test system: RPMI-8226 cells
Experiment: Gene expression profiling, NanoString nCounter PanCancer Pathways Panel, ROSALIND analysis
Assay type: cell-based, human
Details: RPMI-8226, TCH-165 samples 1-3
Description: RPMI-8226 cells were treated with vehicle or TCH-165 (10 μM) for 4 h. Total RNA was obtained using the mirVana miRNA Isolation Kit, with phenol (Thermofisher Scientific; AM1560; Waltham, MA, USA). Total RNA was quantified by Qubit (Thermofisher Scientific; Q32855; Waltham, MA, USA). and gene expression was evaluated against the nCounter® PanCancer Pathways Panel^TM according to the standard NanoString protocol.
Data were analyzed by ROSALIND® [36] with a hyperscale architecture developed by ROSALIND, Inc. (San Diego, CA, USA). Normalization, fold changes and p-values were calculated using criteria provided by NanoString. ROSALIND follows the nCounter® Advanced Analysis protocol of dividing counts within a lane by the geometric mean of the normalizer probes from the same lane. Housekeeping probes to be used for normalization are selected based on the geNorm algorithm, as implemented in the NormqPCR R library. Fold changes and p-values are calculated using the fast method as described in the nCounter Advanced Analysis 2.0 User Manual. The p-value adjustment is performed using the Benjamini–Hochberg method of estimating false discovery rates (FDR). Clustering of genes for the final heatmap of differentially expressed genes was done using the PAM (Partitioning Around Medoids) method using the fpc R library. Hypergeometric distribution was used to analyze the enrichment of pathways, gene ontology, domain structure and other ontologies. The topGO R library was used to determine local similarities and dependencies between GO terms in order to perform Elim pruning correction. Several database sources were referenced for enrichment analysis, including Interpro [40], NCBI [41], MSigDB [42, 43], REACTOME [44], WikiPathways. Enrichment was calculated relative to a set of background genes relevant to the experiment.

CCOC(=O)[C@]1(c2ccccc2)N=C(c2ccc(OC)cc2)N(Cc2ccccc2)[C@@H]1c1ccc(NCc2ccccc2)cc1 [TCH-165]
LIFR normalized gene expression: 4.488 and 4.2133 and 4.184
LIG4 normalized gene expression: 6.629 and 6.817 and 6.796
LRP2 normalized gene expression: 4.308 and 3.657 and 4.341
LTBP1 normalized gene expression: 6.378 and 6.402 and 6.366
MAD2L2 normalized gene expression: 10.1336 and 10.1942 and 10.1645
MAP2K1 normalized gene expression: 10.0208 and 10.0248 and 9.981
MAP2K2 normalized gene expression: 10.108 and 10.1628 and 10.1486
MAP2K4 normalized gene expression: 7.169 and 6.524 and 6.893
MAP2K6 normalized gene expression: 4.924 and 4.855 and 5.0068
MAP3K1 normalized gene expression: 10.6246 and 10.5002 and 10.4469
MAP3K5 normalized gene expression: 6.704 and 6.918 and 6.75
MAP3K8 normalized gene expression: 6.308 and 6.569 and 6.506
MAP3K12 normalized gene expression: 5.571 and 5.476 and 5.0682
MAP3K13 normalized gene expression: 7.948 and 7.905 and 8.019
MAP3K14 normalized gene expression: 7.978 and 7.887 and 7.688
MAPK1 normalized gene expression: 8.625 and 8.638 and 8.461
MAPK3 normalized gene expression: 9.736 and 9.67 and 9.676
MAPK8IP1 normalized gene expression: 5.86 and 4.739 and 5.0068
MAPK8IP2 normalized gene expression: 4.208 and 3.657 and 4.39
MAPK8 normalized gene expression: 7.835 and 7.506 and 7.597
MAPK9 normalized gene expression: 8.658 and 8.617 and 8.437
MAPK10 normalized gene expression: 5.101 and 4.2133 and 4.876
MAPK12 normalized gene expression: 7.499 and 7.109 and 7.1906
MAPT normalized gene expression: 5.355 and 5.351 and 5.5707
MCM2 normalized gene expression: 10.402 and 10.4329 and 10.4331
MCM4 normalized gene expression: 11.2136 and 11.1596 and 11.149
MCM5 normalized gene expression: 10.3105 and 10.197 and 10.1802
MCM7 normalized gene expression: 13.0908 and 13.0284 and 12.9867
MDC1 normalized gene expression: 10.2272 and 10.2142 and 10.1897
MDM2 normalized gene expression: 10.4133 and 10.3393 and 10.3264
MECOM normalized gene expression: 7.156 and 6.927 and 6.814
MED12 normalized gene expression: 8.477 and 8.644 and 8.469
MEN1 normalized gene expression: 9.714 and 9.644 and 9.611
MET normalized gene expression: 5.924 and 5.093 and 5.613
MFNG normalized gene expression: 9.115 and 9.16 and 9.044
MGMT normalized gene expression: 8.108 and 8.085 and 8.034
MLF1 normalized gene expression: 5.86 and 5.9093 and 5.712
MLH1 normalized gene expression: 9.392 and 9.378 and 9.34
MLLT3 normalized gene expression: 6.776 and 6.688 and 6.449
MLLT4 normalized gene expression: 8.677 and 8.597 and 8.636
MMP3 normalized gene expression: 4.401 and 3.27 and 4.341
MMP7 normalized gene expression: 5.571 and 5.242 and 5.238
MMP9 normalized gene expression: 4.649 and 4.855 and 4.0068
MNAT1 normalized gene expression: 8.319 and 8.402 and 8.366
MPL normalized gene expression: 4.308 and 4.154 and 3.805
MPO normalized gene expression: 4.986 and 4.569 and 4.876
MSH2 normalized gene expression: 9.884 and 9.976 and 9.945
MSH6 normalized gene expression: 10.1754 and 9.989 and 10.0455
MTOR normalized gene expression: 9.008 and 8.985 and 8.893
MUTYH normalized gene expression: 6.74 and 6.512 and 6.663
MYB normalized gene expression: 9.142 and 9.166 and 9.1468
MYC normalized gene expression: 12.5611 and 12.5765 and 12.4952
MYCN normalized gene expression: 7.142 and 6.817 and 6.893
MYD88 normalized gene expression: 8.723 and 8.683 and 8.623
NASP normalized gene expression: 8.252 and 8.093 and 8.307
NBN normalized gene expression: 10.4814 and 10.4965 and 10.3946
NCOR1 normalized gene expression: 9.769 and 9.64 and 9.618
NF1 normalized gene expression: 9.325 and 9.277 and 9.208
NF2 normalized gene expression: 9.205 and 9.097 and 9.096
NFATC1 normalized gene expression: 5.355 and 5.427 and 5.461
NFE2L2 normalized gene expression: 10.2602 and 10.1647 and 10.2373
NFKB1 normalized gene expression: 8.156 and 8.124 and 8.177
NFKBIA normalized gene expression: 9.249 and 9.354 and 9.231
NGFR normalized gene expression: 5.445 and 5.154 and 5.098
NODAL normalized gene expression: 5.445 and 5.093 and 4.876
NOG normalized gene expression: 4.208 and 4.739 and 4.653
NOS3 normalized gene expression: 5.044 and 4.524 and 4.5707
NOTCH1 normalized gene expression: 8.62 and 8.452 and 8.261
NOTCH2 normalized gene expression: 10.6545 and 10.568 and 10.5378
NPM1 normalized gene expression: 7.667 and 7.529 and 7.245
NPM2 normalized gene expression: 2.401 and 2.739 and 2.805
NR4A1 normalized gene expression: 6.924 and 6.944 and 6.759
NR4A3 normalized gene expression: 4.488 and 4.427 and 4.769
NRAS normalized gene expression: 7.581 and 7.678 and 7.663
NTF3 normalized gene expression: 7.456 and 7.1988 and 7.251
NTHL1 normalized gene expression: 9.395 and 9.328 and 9.318
NTRK1 normalized gene expression: 4.793 and 3.569 and 3.483
NTRK2 normalized gene expression: 4.793 and 5.093 and 4.5707
NUMBL normalized gene expression: 5.955 and 5.891 and 5.693
NUPR1 normalized gene expression: 6.073 and 6.228 and 6.3536
OSM normalized gene expression: 5.101 and 5.636 and 5.0682
PAK3 normalized gene expression: 4.488 and 4.27 and 3.876
PAX3 normalized gene expression: 4.649 and 4.029 and 4.0682
PAX5 normalized gene expression: 4.986 and 3.962 and 4.693
PAX8 normalized gene expression: 5.723 and 5.297 and 5.366
PBRM1 normalized gene expression: 9.417 and 9.5 and 9.432
PBX1 normalized gene expression: 8.776 and 8.575 and 8.5707
PBX3 normalized gene expression: 6.53 and 6.427 and 6.426
PCK1 normalized gene expression: 3.208 and 3.3768 and 3.0682
PCNA normalized gene expression: 10.03 and 10.0442 and 10.0502
